This experiment concerns the target Kv1.3 voltage-gated K+ channel (Homo sapiens, UniProt P22001). In kind it is cell-based.

Sequence of Kv1.3 voltage-gated K+ channel (P22001 whole entry): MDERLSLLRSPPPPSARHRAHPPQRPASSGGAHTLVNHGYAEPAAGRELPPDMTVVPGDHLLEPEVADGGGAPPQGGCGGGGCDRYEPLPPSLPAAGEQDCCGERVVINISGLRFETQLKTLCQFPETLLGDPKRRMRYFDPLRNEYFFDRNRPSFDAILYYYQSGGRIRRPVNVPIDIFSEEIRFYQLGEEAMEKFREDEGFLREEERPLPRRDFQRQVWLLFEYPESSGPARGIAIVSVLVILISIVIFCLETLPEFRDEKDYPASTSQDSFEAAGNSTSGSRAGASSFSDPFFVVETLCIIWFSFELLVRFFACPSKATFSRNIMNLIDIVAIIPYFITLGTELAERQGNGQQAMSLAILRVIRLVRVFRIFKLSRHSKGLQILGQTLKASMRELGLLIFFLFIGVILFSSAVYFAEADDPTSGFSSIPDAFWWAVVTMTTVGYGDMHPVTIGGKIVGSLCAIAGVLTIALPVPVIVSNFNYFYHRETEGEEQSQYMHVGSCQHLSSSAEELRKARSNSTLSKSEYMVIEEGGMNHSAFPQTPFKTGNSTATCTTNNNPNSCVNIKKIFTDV

The molecule `CC[N+](CC)(CC)CC` [TEA+] yielded a concentration for half-maximal inhibition (IC50) of 10.3 ± 0.71 mM.

The term IC50 denotes the concentration needed to halve the response being measured. A low value points to greater potency.

Values taken from article PMC7781520 (Channels, 2020).
